Source: ChEMBL document CHEMBL4130565, “Consequences of Depsipeptide Substitution on the ClpP Activation Activity of Antibacterial Acyldepsipeptides” (ACS Med Chem Lett, 2017)
Values joined by “and” are separate entries in the source; they are usually repeats but may differ in a detail not shown here. Equal entries are not always repeated. Where a SMILES comes first, the peptide text is derived from it. Bridges are numbered along the chain shown (N, C = ends). [ ]: non-standard residue; d: D form. The star is where a group is joined. Phe(3,5-F2) = N[C@@H](Cc1cc(F)cc(F)c1)C(=O)O; Heptenoyl(2E) = CCCC/C=C/C(=O)*; NMeA = CN[C@@H](C)C(=O)O; Dap = NC[C@H](N)C(=O)O

Experiments:
[1] = target: ATP-dependent Clp protease proteolytic subunit (Bacillus subtilis (strain 168)) (UniProt P80244); test: Activation of Bacillus subtilis ClpP expressed in Escherichia coli BL21(DE3) using Abz-DFAPKMALVPYNO2 as substrate pretreated for 15 mins followed by substrate addition measured every 30 mins for 2 hrs by fluorescence assay
ATP-dependent Clp protease proteolytic subunit (Bacillus subtilis (strain 168)), sequence (P80244 whole entry, looked up): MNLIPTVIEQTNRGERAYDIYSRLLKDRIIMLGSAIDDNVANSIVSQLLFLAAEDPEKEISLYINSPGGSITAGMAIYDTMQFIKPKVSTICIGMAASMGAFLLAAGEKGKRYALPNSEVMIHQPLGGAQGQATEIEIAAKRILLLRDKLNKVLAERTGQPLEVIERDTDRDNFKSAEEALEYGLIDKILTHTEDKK

[2] = Half life in CD3OD assessed as hydrogen-deuterium exchange by 1H-NMR analysis; assay type: physicochemical
[3] = target: ATP-dependent Clp protease proteolytic subunit (Bacillus subtilis (strain 168)) (UniProt P80244); test: Stabilization of Bacillus subtilis ClpP assessed as change in melting temperature at 50 uM after 30 mins by SYPRO orange protein gel staining based FRET analysis
Bacillus subtilis = test: Antibacterial activity against Bacillus subtilis ATCC 6051 after 16 hrs by microdilution method; assay type: functional; conditions: ATCC 6051, 16 h

Kapp [1]	half-life [2]	ΔTm [3]	MIC (Bacillus subtilis)	Structure (SMILES)
0.037 µM	38 min	29.1 °C	0.037 µM and 0.027 µg/mL	CCCC/C=C/C(=O)N[C@@H](Cc1cc(F)cc(F)c1)C(=O)N[C@H]1COC(=O)[C@@H]2CCCN2C(=O)[C@H](C)NC(=O)[C@H](C)N(C)C(=O)[C@@H]2CCCN2C1=O ({Heptenoyl(2E)}-[Phe(3,5-F2)]SP[NMeA]AP; ester 2-C)
0.085 µM	< 4 min	22.8 °C	6.25 µM and 4.6 µg/mL	CCCC/C=C/C(=O)N[C@@H](Cc1cc(F)cc(F)c1)C(=O)N[C@H]1CNC(=O)[C@@H]2CCCN2C(=O)[C@H](C)NC(=O)[C@H](C)N(C)C(=O)[C@@H]2CCCN2C1=O ({Heptenoyl(2E)}-[Phe(3,5-F2)][Dap]P[NMeA]AP; lactam 2-C)
4.39 µM	< 4 min	12.7 °C	> 25 µM and > 18.6 µg/mL	CCCC/C=C/C(=O)N[C@@H](Cc1cc(F)cc(F)c1)C(=O)N[C@H]1CN(C)C(=O)[C@@H]2CCCN2C(=O)[C@H](C)NC(=O)[C@H](C)N(C)C(=O)[C@@H]2CCCN2C1=O
